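Results reflect a 48-hour exposure of cells in 96-well plates to compound at five concentrations. Abbreviation: GI50, concentration required for 50% inhibition of growth.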 Activity calls are given as the source filed them. Cut-off read from the data, not from the text of the source: active = GI50 up to about 1.1 µM and inactive = higher.
Columns and labels:
Assay in all cases: DTP human tumour cell line panel, 48 h
SNB-19 = tested on: SNB-19
UACC-62 = tested on: UACC-62
SF-539 = tested on: SF-539
MCF7 = tested on: MCF7
OVCAR-8 = tested on: OVCAR-8
Malme-3M = tested on: Malme-3M
HT-29 = tested on: HT-29
HOP-92 = tested on: HOP-92
HCT-15 = tested on: HCT-15
RPMI-8226 = tested on: RPMI-8226
SN12C = tested on: SN12C
NCI-H23 = tested on: NCI-H23
OVCAR-5 = tested on: OVCAR-5
SK-MEL-2 = tested on: SK-MEL-2
UACC-257 = tested on: UACC-257
HCT-116 = tested on: HCT-116
CAKI-1 = tested on: CAKI-1
M14 = tested on: M14
K562 = tested on: K562
CCRF-CEM = tested on: CCRF-CEM

Measured: GI50

C(=N\NC1=NCCN1)/c1ccc(-c2cn3cc(/C=N/NC4=NCCN4)ccc3n2)cc1
inactive: SNB-19 > 43.1 µM | UACC-62 40.6 µM | SF-539 > 100 µM | MCF7 2.2 µM | OVCAR-8 37.5 µM | Malme-3M 2.82 µM | HT-29 11.9 µM | HOP-92 18.8 µM | RPMI-8226 16.6 µM | SN12C > 36.9 µM | NCI-H23 > 100 µM | OVCAR-5 64.3 µM | SK-MEL-2 > 100 µM | UACC-257 30.3 µM | HCT-116 10.4 µM | CAKI-1 22 µM | M14 > 32.7 µM | K562 14.6 µM | CCRF-CEM 2.74 µM
> 68.4 µM: HCT-15

COC1=CC(=O)C[C@@H](C)[C@]12Oc1c(Cl)c(OC)cc(OC)c1C2=O [GRISEOFULVIN]
22.8 µM: HCT-15
inactive: SNB-19 35.2 µM | UACC-62 18.6 µM | SF-539 14.6 µM | MCF7 9.62 µM | OVCAR-8 30.1 µM | Malme-3M 76.4 µM | HT-29 16.8 µM | HOP-92 > 34.3 µM | RPMI-8226 19.4 µM | SN12C 40.5 µM | NCI-H23 42.1 µM | OVCAR-5 > 91.6 µM | SK-MEL-2 > 71.6 µM | UACC-257 > 20.5 µM | HCT-116 11.8 µM | CAKI-1 9.53 µM | M14 9.48 µM | K562 3.47 µM | CCRF-CEM 33.3 µM

COc1ccc(-c2cc(=O)c3c(OC)c(OC)c(OC)c(OC)c3o2)cc1OC [NOBILETIN]
26.5 µM: HCT-15
inactive: SNB-19 > 100 µM | UACC-62 25.6 µM | SF-539 > 100 µM | MCF7 4.86 µM | OVCAR-8 29.6 µM | Malme-3M > 100 µM | HT-29 32.1 µM | HOP-92 18.3 µM | RPMI-8226 39.8 µM | SN12C 41.5 µM | NCI-H23 47.1 µM | OVCAR-5 > 100 µM | SK-MEL-2 49.4 µM | UACC-257 33.5 µM | HCT-116 72.4 µM | CAKI-1 29.4 µM | M14 55.8 µM | K562 36.3 µM | CCRF-CEM 65.6 µM

O=C1N[C@H]2[C@H](O)[C@H](O)[C@@H](O)[C@H](O)[C@@H]2c2cc3c(c(O)c21)OCO3 [PANCRATISTATIN]
0.045 µM: HCT-15
active: SNB-19 0.0301 µM | UACC-62 0.0436 µM | SF-539 0.037 µM | MCF7 0.0369 µM | OVCAR-8 0.0336 µM | Malme-3M 0.0352 µM | HT-29 0.0439 µM | HOP-92 0.0316 µM | RPMI-8226 0.0778 µM | SN12C 0.0365 µM | NCI-H23 0.0445 µM | OVCAR-5 0.144 µM | SK-MEL-2 0.0336 µM | UACC-257 0.0429 µM | HCT-116 0.0297 µM | CAKI-1 0.0331 µM | M14 0.262 µM | K562 0.0373 µM | CCRF-CEM 0.0324 µM

Reference: ChEMBL document CHEMBL1201862, “PubChem BioAssay data set” (2004)
